Results published in patent US4350698A, “Antiallergic imidosulfamides” (SmithKline Corporation, priority 1981, dated 1982).

Test system: slow reacting substance of anaphylaxis (SRS-A)
Assay: Inhibition of SRS-A induced contraction of guinea pig ileum
Type: cell-based
Details: Cavia porcellus, 0.25 h; compound concentration 5×10^-6 M; partially purified SRS-A from guinea pig lung at 40 μg/ml; isolated guinea pig ileum; read-out: percent antagonism of SRS-A induced contraction
Experimental: The SRS-A antagonist activity of the compounds of this invention is measured by the ability of the active medicament to inhibit SRS-A induced contraction of guinea pig ileum. In this test system, sections of ileum are resected from guinea pigs and placed in 5 ml. tissue baths containing a modified Tyrode's solution. One end of the tissue is fixed to a glass tissue holder, the other is connected to a force-displacement transducer and the tissue is placed under a tension of 500 mg. Isometric tissue contractions are recorded on a six channel polygraph. Baths are constantly aerated with 95% O2 -5% CO2. After a 20 minute stabilization period a concentration of the appropriate agonist which provides a contraction height of 60-80% of the maximum obtainable to that agonist (as determined from full sequential concentration-response curves in separate experiments) is added to the tissue bath and the response recorded. The procedure is repeated until reproducible responses are obtained. […] Percent inhibition produced by the test compound is calculated by subtracting the mean percentage change in control tissue from the mean percentage change in tissues exposed to the test compound. Additional compounds are then evaluated as long as the tissue remains reproducibly responsive to the agonist. […]

Work on `O=C(NS(=O)(=O)N1CCc2ccc(Cl)c(Cl)c2C1)N1CCc2ccc(Cl)c(Cl)c2C1` [Compound 1, N-(7,8-Dichloro-1,2,3,4-tetrahydroisoquinolin-2yl)Carbonyl-7,8-dichloro-1,2,3,4-tetrahydroisoquinoline-2-sulfonamide] yielded an inhibition at 5 µM of 46%.
